A short description of this data set: Stability of the drug substance during the homogenization process (HPLC spectra). As to conditions: nanosuspension prepared at pH 7.2 without pH change; additional peak in HPLC spectra (FIG. 2C), in some cases. It is filed as physicochemical. On the procedure:
The formulation was filtered through a 0.22 μm membrane for sterilization. The Paclitaxel content before and after filtration was measured by HPLC. […] The split peak in HPLC may indicate the degradation of the drug during the process.

On to `CC(=O)O[C@H]1C(=O)[C@@]2(C)[C@H]([C@H](OC(=O)c3ccccc3)[C@]3(O)C[C@H](OC(=O)[C@H](O)[C@@H](NC(=O)c4ccccc4)c4ccccc4)C(C)=C1C3(C)C)[C@]1(OC(C)=O)CO[C@@H]1C[C@@H]2O` [Paclitaxel], for which the “stability of the drug substance during the process” value was “not stable during the process”.

The values above are taken from US20200054563A1, “PHARMACEUTICAL COMPOSITION FOR IN VIVO DELIVERY, METHOD OF PREPARATION OF A SUBSTANTIALLY WATER-INSOLUBLE PHARMACOLOGICALLY ACTIVE AGENT FOR IN VIVO DELIVERY, AND METHOD OF TREATING DISEASE” (ZY Therapeutics Inc., priority 2017, published 2020).
